Source: ChEMBL document CHEMBL4602683, “The Isolation of Pyrroloformamide Congeners and Characterization of Their Biosynthetic Gene Cluster” (J Nat Prod, 2020)
≈ marks a conversion by molar mass, not a printed value.

Experiments:
[1] = system: Staphylococcus aureus; test: Antibacterial activity against Staphylococcus aureus ATCC 29213 by resazurin dye based microdilution method; assay type: functional
[2] = system: Escherichia coli; test: Antibacterial activity against Escherichia coli by resazurin dye based microdilution method; assay type: functional
[3] = system: Staphylococcus aureus; test: Antibacterial activity against Methicillin resistant Staphylococcus aureus by resazurin dye based microdilution method; assay type: functional
[4] = system: Klebsiella pneumoniae; test: Antibacterial activity against Klebsiella pneumoniae by resazurin dye based microdilution method; assay type: functional
[5] = system: Caco-2; test: Cytotoxicity against human Caco2 cells by CCK8 assay; assay type: functional, cell-based
[6] = system: A549; test: Cytotoxicity against human A549 cells by CCK8 assay; assay type: functional, cell-based
[7] = system: PC-3M; test: Cytotoxicity against human PC3M cells after 72 hrs by MTT assay; assay type: functional, cell-based

Compound | MIC [1] [µg/mL] | MIC [2] [µg/mL] | MIC [3] [µg/mL] | MIC [4] [µg/mL] | IC50 [5] [nM] | IC50 [6] [nM] | IC50 [7] [nM]
CC(=O)NC[C@H]1CN(c2ccc(N3CCOCC3)c(F)c2)C(=O)O1 [LINEZOLID] | 1 (≈ 2.96 µM) | > 64 | 1 (≈ 2.96 µM) | > 64 |  |  | 
CN(C=O)C1=C2C(=CSS2(=O)=O)NC1=O | 8 (≈ 32.5 µM) | 32 (≈ 130 µM) | 8 (≈ 32.5 µM) | 64 (≈ 260 µM) | > 64000 | > 64000 | 
CN(C=O)C1=C2SCSC=C2NC1=O | > 64 | > 64 | > 64 | > 64 | > 64000 | > 64000 | 
CN(C=O)c1c2sscc-2[nH]c1=O | 0.5 (≈ 2.33 µM) | 0.5 (≈ 2.33 µM) | 0.5 (≈ 2.33 µM) | 0.5 (≈ 2.33 µM) | 570 | 1340 | 1700
O=CNc1c2sscc-2[nH]c1=O | 4 (≈ 20 µM) | 1 (≈ 4.99 µM) | 2 (≈ 9.99 µM) | 1 (≈ 4.99 µM) |  |  | 
